From patent publication EP0079489A1, “Methotrexate-labeled iodothyronine conjugates and method, reagent means and test device for the determination of iodothyronine in or iodothyronine uptake of a liquid sample” (MILES LABORATORIES, INC., priority 1981, dated 1983)

Legend:
[1] = biological target: T1, bovine liver dihydrofolate reductase (Bos taurus, UniProt P00376); test: Inhibition of dihydrofolate reductase by the labeled conjugate (Example 1C); type: biochemical; settings: for ΔA340/20 Min: 37°C, without conjugate 0.645
T1 construct: bovine liver dihydrofolate reductase (Sigma Chemical Co., St. Louis, MO); purchased Sigma Chemical Co., St. Louis, MO; host or cells: bovine liver
T1 sequence (P00376 1-187): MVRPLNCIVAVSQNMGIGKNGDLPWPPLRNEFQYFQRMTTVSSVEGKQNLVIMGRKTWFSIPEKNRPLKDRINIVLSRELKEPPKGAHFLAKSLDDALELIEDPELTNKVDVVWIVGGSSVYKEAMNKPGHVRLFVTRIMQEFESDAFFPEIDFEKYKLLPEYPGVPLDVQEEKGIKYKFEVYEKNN
Protocol: (§1) The standard assay consisted of 0.10 mM dihydrofolate (DHF), 0.10 mM NADPH, 0.001 unit/bovine liver dihydrofolate reductase (Sigma Chemical Co., St. Louis, MO) and 0.1 M sodium phosphate (pH 6.0) in a final volume of 2.0 ml. The reaction mixture without dihydrofolate was incubated at 37°C for 5 minutes, then the reaction was initiated by adding dihydrofolate, and an initial absorbance at 340 nm was recorded with a Gilford 250 spectrophotometer (Gilford Instrument Laboratories, Oberlin, OH). The reaction was allowed to proceed for 20 minutes at 37°C and then a final reading was recorded. The enzyme activity was expressed as the change in absorbance (AA) at 340 nanometers (nm) that occurred during the 20 minute (min) reaction.
Various concentrations of methotrexate-aminobutylthroxine conjugate were incubated with the standard concentrations of NADPH, dihydrofolate reductase and buffer for 5 minutes at 37°C. The reaction was initiated as discussed above with the addition of dihydrofolate.

Antibody to Thyroxine [2] = test: Titration of antibody to thyroxine with the labeled conjugate, dihydrofolate reductase activity read-out (Example 1D); type: binding; settings: 75 µl of 0.16 µM conjugate (6 nM)
Protocol: as §1
Various concentrations of antibody to thyroxine and the standard concentrations of NADPH, 6 nM methotrexate-aminobutylthyroxine and buffers were incubated for 2 minutes at room temperature. Dihydrofolate reductase was then added, and the incubation was continued for 5 minutes at 37°C. The enzyme catalyzed reaction was initiated by addition of dihydrofolate and monitored as described above.

Antibody to Thyroxine [3] = test: Competitive binding assay for thyroxine, dihydrofolate reductase activity read-out (Example 1E); settings: 100 µl of 0.16 µM conjugate
Protocol: as §1
The standard concentrations of NADPH, buffer, antibody to thyroxine and various concentrations of thyroxine were incubated at room remperature for a minimum of 30 seconds. Then 100 µl of […] methotrexate-aminobutylthyroxine was added and the mixture was incubated at room temperature for 2 minutes. Following the second incubation, dihydrofolate reductase was added and the mixture was incubated an additional 5 minutes at 37°C. The reaction was initiated and monitored in the usual manner.

[4] = system: Rabbit antibody to thyroxine; test: Titration of antibody to thyroxine with the labeled conjugate, thiazoyl blue colorimetric read-out (Example 2B); type: binding; settings: 40 µl Reagent 5 (conjugate), 10 minutes
Protocol: Thyroxine-free serum was prepared by treatment of pooled human serum with charcoal [Larsen et al, J. Clin. Endocrinol. Metab. 37:177(1973)]. All reagents except thyroxine-free serum or as otherwise indicated below were prepared in 0.1 M sodium phosphate buffer, pH 6.5, containing 0.3 M potassium chloride and 0.005% sodium azide. • Reagent 1 - Mixture of 6.5 ml of 10 mM 8-anilinonaphthalene sulfonic acid and 10 ml of thyroxine-free serum. • Reagent 2 - Mixture of 1.0 ml of bovine liver dihydrofolate reductase (0.152 units/ml) and 1.0 ml of 11 mM thiazoyl blue. • Reagent 3 - 0.114 mM dihydrofolate in 0.085 M sodium phosphate buffer, pH 6.2, 0.255 mM potassium chloride, and 0.043% sodium azide. • Reagent 4 - Rabbit antibody to thyroxine diluted 10-fold in buffer. • Reagent 5 - […] methotrexate-thyroxine conjugate (Part A above) in 10 mM sodium carbonate buffer, pH 9.5. • Reagent 6 - 10 mM NADPH in 10 mM sodium carbonate buffer, pH 9.5.
Various amounts of Reagent 4 (indicated in Table 4 below) were mixed with 40 µl of Reagent 5, 90 µl of Reagent 6, and sufficient buffer to make a final volume of 625 pl. Then 175 µl of Reagent 1 was added to each followed by 250 µl of buffer and the incubation was continued. After 10 minutes from the addition of Reagent 3, the absorbance at 560 nm was recorded for each reaction mixture and shown in Table 4.

SMILES | ΔA340/20 Min ([1]; 25 μl of 0.16 μM conjugate in 2.0 ml final volume) | ΔA340/20 Min ([1]; 50 μl of 0.16 μM conjugate in 2.0 ml final volume) | ΔA340/20 Min ([1]; 100 μl of 0.16 μM conjugate in 2.0 ml final volume) | ΔA340/20 Min ([1]; 200 μl of 0.16 μM conjugate in 2.0 ml final volume) | inhibition of dihydrofolate reductase (verdict in words) ([1]; various concentrations of conjugate, Table 1) | ΔA340/20 Min (Antibody to Thyroxine [2]; 10 µl antibody to thyroxine 1:9 dilution) | ΔA340/20 Min (Antibody to Thyroxine [2]; 20 µl antibody to thyroxine 1:9 dilution) | ΔA340/20 Min (Antibody to Thyroxine [2]; 40 µl antibody to thyroxine 1:9 dilution) | ΔA340/20 Min (Antibody to Thyroxine [2]; 80 µl antibody to thyroxine 1:9 dilution) | ΔA340/20 Min (Antibody to Thyroxine [2]; 160 µl antibody to thyroxine 1:9 dilution) | ΔA340/20 Min (Antibody to Thyroxine [2]; no antibody, without conjugate and antibody 0.691) | ΔA340/20 Min (Antibody to Thyroxine [3]; 30 µl antibody to thyroxine 1:4 dil, no thyroxine) | ΔA340/20 Min (Antibody to Thyroxine [3]; no antibody, without conjugate 0.620) | Average Absorbance (560 nm) ([4]; 20 µl Reagent 4 (rabbit antibody diluted 10-fold)) | Average Absorbance (560 nm) ([4]; 40 µl Reagent 4 (rabbit antibody diluted 10-fold)) | Average Absorbance (560 nm) ([4]; 80 µl Reagent 4 (rabbit antibody diluted 10-fold)) | Average Absorbance (560 nm) ([4]; 160 µl Reagent 4 (rabbit antibody diluted 10-fold)) | Average Absorbance (560 nm) ([4]; 320 µl Reagent 4 (rabbit antibody diluted 10-fold)) | Average Absorbance (560 nm) ([4]; no antibody solution, thyroxine-free serum present)
CN(Cc1cnc2nc(N)nc(N)c2n1)c1ccc(C(=O)NC(CCC(=O)NCCCCNC(Cc2cc(I)c(Oc3cc(I)c(O)c(I)c3)c(I)c2)C(=O)O)C(=O)O)cc1 (stereo not shown) [Methotrexate-Aminobutyl-Thyroxine, Methotrexate-aminobutylthyroxine Conjugate] | 0.566 | 0.495 | 0.433 | 0.306 | effective inhibitor | 0.579 | 0.602 | 0.664 | 0.656 | 0.667 | 0.499 | 0.645 | 0.458 |  |  |  |  |  | 
CN(Cc1cnc2nc(N)nc(N)c2n1)c1ccc(C(=O)NC(CCC(=O)NC(Cc2cc(I)c(Oc3cc(I)c(O)c(I)c3)c(I)c2)C(=O)O)C(=O)O)cc1 (stereo not shown) [methotrexate-thyroxine conjugate, Methotrexate-thyroxine Conjugate] |  |  |  |  |  |  |  |  |  |  |  |  |  | 0.538 | 0.581 | 0.632 | 0.689 | 0.737 | 0.478
